# Test results from patent US11883517B2, “External dermal composition and method for beautifying skin” (National Tsing Hua University, priority 2021, dated 2024).
# System: EpiDerm™ SIT (EPI-200)
# Test: Skin irritation test, OECD 439
# Conditions: test group 50 μM, positive control 5% solution, average of 3 repeats
# Description: In the present evaluation, the EpiDerm™ SIT (EPI-200) was used for skin irritation tests following the OECD 439 test guidelines.
# In the skin irritation test, the double nitrosyl-iron complex at a concentration of 50 μM was used as the test group, Dulbecco's Phosphate-Buffered Saline (DPBS) was used as the negative control group, and 5% of sodium dodecyl sulfate (SDS) solution was used as a positive control group. The test was repeated 3 times, and the average value was used for evaluation.
compound,measurement,value
"CCCCCCCCCCCCOS(=O)(=O)[O-].[Na+] [sodium dodecyl sulfate (SDS), sodium dodecyl sulfate]",tissue survival rate,15.11%
